Results published in a melting point compilation (Tetko et al.).

Q: With CC(C)(Oc1ccc(C#N)cc1)C(=O)O as the compound, how does the melting point read?
A: The melting point was 117 to 120 °C.

Q: Which melting point does the source give for N#CC(C#N)=C1c2cc([N+](=O)[O-])ccc2-c2c1cc([N+](=O)[O-])cc2[N+](=O)[O-] here?
A: Its melting point is 267 °C.

Q: For O=C(Nc1ccc([N+](=O)[O-])cc1)C(F)(F)C(F)(F)C(F)(F)C(F)(F)C(F)(F)C(F)(F)C(F)(F)C(F)(F)F, which melting point is on record?
A: Its melting point is 119 °C.

Q: For S=C(SC(=S)N1CCCCC1)N1CCCCC1, which melting point is on record?
A: Its melting point is 110 °C.

Q: For O=C(C(=O)c1ccc2ccccc2c1)c1ccccc1, which melting point is on record?
A: Its melting point is 87 °C.

Q: With CCOC(=O)C1CCN(c2cc(C#N)ccn2)CC1 as the compound, how does the melting point read?
A: The melting point was 51 to 53 °C.

Q: For CC(C(O)c1ccccc1)N(C)C (stereo not drawn), which melting point is on record?
A: The melting point was 87.5 °C.

Q: Which melting point does the source give for Brc1cc(Br)c(Oc2c(Br)cc(Br)c(Br)c2Br)cc1Br here?
A: The melting point was 171 to 173 °C.

Q: For CCC#CCCCCCCCCCCCCCC, which melting point is on record?
A: Its melting point is 2 °C.

Q: For Cc1cc2occ(C#N)c(=O)c2cc1C, which melting point is on record?
A: The melting point was 206 to 210 °C.

Q: For CC(C=CC=CC(C)=CC=CC(C)=CC=C1C(C)=CC(=O)CC1(C)C)=CC=CC(C)=CC=C1C(C)=CC(=O)CC1(C)C, which melting point is on record?
A: Its melting point is 219 °C.

Q: With CCOC(=O)c1sc(N)nc1C(F)(F)F as the compound, how does the melting point read?
A: The melting point was 186 °C.

Q: With Cc1cccc2c1CC(C(=O)O)N(C(=O)OC(C)(C)C)C2 (racemic) as the compound, how does the melting point read?
A: Its melting point is 142 to 144 °C.

Q: For Oc1nc(C2CCCCC2)nn1-c1ccccc1, which melting point is on record?
A: The melting point was 197 °C.

Q: Which melting point does the source give for Cc1ccc(C(c2ccc(C)o2)c2ccccc2C#N)o1 here?
A: The melting point was 87 °C.

Q: With CC1(C)CC2(CC(C)(C)c3cc(O)c(O)cc32)c2cc(O)c(O)cc21 as the compound, how does the melting point read?
A: Its melting point is 300 °C.

Q: Which melting point does the source give for CC(=O)Nc1cc(NS(=O)(=O)C(F)(F)F)c(C)cc1C here?
A: The melting point was 184 °C.

Q: With N#CCOc1ccc(Cl)cc1Cl as the compound, how does the melting point read?
A: Its melting point is 46 to 48 °C.

Q: For O=c1oc2c(o1)=C(c1ccccc1)S(=O)(=O)C=2c1ccccc1, which melting point is on record?
A: The melting point was 227 °C.

Q: Which melting point does the source give for COc1ccc(C(C)=O)c(OC)c1OC here?
A: The melting point was 15.8 °C.

Q: For CN(C)c1ccc(C2Nc3nc(C(F)(F)F)nn3C(N)=C2C#N)cc1 (stereo not drawn), which melting point is on record?
A: Its melting point is 164 °C.

Q: For Cc1cccc(NC=C2C(=O)NN=C2c2c(O)c3ccccc3n(C)c2=O)c1, which melting point is on record?
A: The melting point was 264 °C.

Q: Which melting point does the source give for COc1ccc(Nc2nc(N)nnc2-c2ccccc2)cc1 here?
A: Its melting point is 293 °C.

Q: With O=C1NC(=S)SC1=Cc1cccc(C=C2SC(=S)NC2=O)c1 as the compound, how does the melting point read?
A: Its melting point is 316 °C.

Q: With CCCc1ccc(O)cc1O as the compound, how does the melting point read?
A: Its melting point is 82.5 °C.

Q: With Cn1c(S)nnc1-c1ccc(Cl)cc1Cl as the compound, how does the melting point read?
A: The melting point was 175 to 177 °C.

Q: Which melting point does the source give for CCOC(=O)c1ccc([N+](=O)[O-])cc1NC(=O)c1ccccc1 here?
A: Its melting point is 179 °C.

Q: Which melting point does the source give for O=C(Cl)CCl here?
A: Its melting point is -22 °C.

Q: With CCOC(=O)CCCCCC(=O)O as the compound, how does the melting point read?
A: The melting point was 10 °C.

Q: For CC(C)(C)SSC(C)(C)C, which melting point is on record?
A: Its melting point is -5 °C.

Q: With COC(=O)c1ccc(S(=O)(=O)c2ccc(C(=O)OC)cc2)cc1 as the compound, how does the melting point read?
A: Its melting point is 193 to 200 °C.

Q: Which melting point does the source give for CCOC(=O)c1c(NC(=O)CN2CCN(c3ccccc3)CC2)sc2c1CCCC2 here?
A: The melting point was 187 to 188 °C.

Q: Which melting point does the source give for Brc1ccc2oc3ccccc3c2c1 here?
A: Its melting point is 110 °C.

Q: Which melting point does the source give for c1ccc(CSc2nnc(SCc3ccccc3)nn2)cc1 here?
A: Its melting point is 137 to 139 °C.

Q: Which melting point does the source give for C=CC(=O)OCC(C)C here?
A: Its melting point is -61 °C.

Q: Which melting point does the source give for Nc1ccc(-c2cccnc2)cc1 here?
A: The melting point was 115 to 118 °C.

Q: For CC(=O)CCc1oc2ccc(Cl)cc2c1-c1ccc(C)o1, which melting point is on record?
A: Its melting point is 75 °C.

Q: Which melting point does the source give for CSc1ccc(I)cc1 here?
A: Its melting point is 40 to 42 °C.

Q: With O=C=Nc1ccc(Oc2ccc(N=C=O)cc2)cc1 as the compound, how does the melting point read?
A: Its melting point is 62 to 66 °C.

Q: With CC(=O)Nc1cc(NC(C)=O)c(OCCO)cc1OCCO as the compound, how does the melting point read?
A: The melting point was 206 °C.

Q: Which melting point does the source give for COc1cc(O)c(C(C)=O)c(OC)c1 here?
A: The melting point was 82 °C.

Q: Which melting point does the source give for CCCCCCOC(=O)CCCCC here?
A: The melting point was -55 °C.

Q: For COCCCl, which melting point is on record?
A: The melting point was -55 °C.

Q: With O=c1[nH]c(=O)n(C2OC(CO)C(O)C2O)cc1F (stereo not drawn) as the compound, how does the melting point read?
A: The melting point was 180 to 183 °C.

Q: Which melting point does the source give for C(C=C(c1ccccc1)c1ccccc1)=C(c1ccccc1)c1ccccc1 here?
A: The melting point was 198 °C.

Q: With C=COC(C)C as the compound, how does the melting point read?
A: The melting point was -140 °C.

Q: Which melting point does the source give for Clc1cc2c(cc1Cl)Oc1c(Cl)c(Cl)cc(Cl)c1O2 here?
A: Its melting point is 206 °C.

Q: With CC1=NN(c2ccccc2)C(=O)C1 as the compound, how does the melting point read?
A: The melting point was 129 °C.

Q: With Cc1cc(=O)oc2cc(N)ccc12 as the compound, how does the melting point read?
A: The melting point was 227 °C.

Q: For Cc1nc(-c2ccc(C=O)cc2)no1, which melting point is on record?
A: The melting point was 115 °C.

Q: With Cc1ccncc1/C=N/N(C)C as the compound, how does the melting point read?
A: Its melting point is 50 °C.

Q: With c1ccc2c(c1)CCc1ccccc1C1(OCCO1)C21OCCO1 as the compound, how does the melting point read?
A: Its melting point is 111 °C.

Q: With CC(C)c1cccc(C(C)C)c1O as the compound, how does the melting point read?
A: Its melting point is 18 °C.

Q: For O=[N+]([O-])c1ccccc1OCCBr, which melting point is on record?
A: The melting point was 40 to 44 °C.

Q: With Nc1ccc(C(F)(F)F)cc1[N+](=O)[O-] as the compound, how does the melting point read?
A: Its melting point is 107 °C.

Q: With Cc1ccccc1NC=O as the compound, how does the melting point read?
A: Its melting point is 62 °C.

Q: Which melting point does the source give for CC(C=Cc1ccccc1)c1ccccc1 (stereo not drawn) here?
A: The melting point was 47.5 °C.

Q: With O=C(c1ccc2c3c(cccc13)CC2)C(Br)c1ccccc1 (stereo not drawn) as the compound, how does the melting point read?
A: Its melting point is 118 °C.

Q: With CC(C)=C1CC(=C(C)C)C1=O as the compound, how does the melting point read?
A: Its melting point is 87 °C.

Q: For Cc1cnc(Cl)c(Br)c1, which melting point is on record?
A: Its melting point is 66 to 68 °C.

Q: For O=S(=O)(CS(=O)(=O)c1ccccc1)c1ccccc1, which melting point is on record?
A: Its melting point is 117 to 123 °C.

Q: For Cc1ccc(C#N)n1C, which melting point is on record?
A: The melting point was 53 to 56 °C.

Q: For O=C(NO)c1ccc(Cl)cc1O, which melting point is on record?
A: Its melting point is 195 to 199 °C.
